This assay has as its target T1, CYP90D1 (Arabidopsis thaliana, UniProt Q94IA6).
T1 construct: DNA fragment encoding CYP90D1 mature protein; expressed from pCold-GST in E. coli, fusion protein cleaved with HRV3C protease
T1 sequence (Q94IA6 1-491): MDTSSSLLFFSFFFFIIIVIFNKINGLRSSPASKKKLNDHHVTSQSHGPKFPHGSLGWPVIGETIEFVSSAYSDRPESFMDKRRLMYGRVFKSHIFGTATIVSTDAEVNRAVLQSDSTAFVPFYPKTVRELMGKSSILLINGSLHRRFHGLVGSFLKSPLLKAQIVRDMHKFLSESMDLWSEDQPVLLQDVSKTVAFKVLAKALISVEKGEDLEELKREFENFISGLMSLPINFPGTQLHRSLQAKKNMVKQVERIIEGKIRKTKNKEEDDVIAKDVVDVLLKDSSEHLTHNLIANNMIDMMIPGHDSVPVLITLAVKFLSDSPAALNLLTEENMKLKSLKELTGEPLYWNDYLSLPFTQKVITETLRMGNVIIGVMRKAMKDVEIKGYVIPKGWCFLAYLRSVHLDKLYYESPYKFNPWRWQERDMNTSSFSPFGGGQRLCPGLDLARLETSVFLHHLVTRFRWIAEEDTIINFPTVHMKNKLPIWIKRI
Description: optical difference spectroscopy (type II spectral titration) of purified recombinant CYP90D1. In kind it is binding.

SMILES strings stand for the structures.

Consider `OC(c1ccc(Cl)cc1)(c1cncnc1)c1ccccc1Cl` (stereo not shown) [FM, fenarimol], for which the Kd (in general, the free concentration of one partner at which half of the binding sites on the other are occupied at equilibrium, for simple one-to-one binding) is 790 nM.

Source of the values: PMC4581192, “Fenarimol, a Pyrimidine-Type Fungicide, Inhibits Brassinosteroid Biosynthesis” (International Journal of Molecular Sciences, 2015).
